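1) Cells in 96-well plates. 2) Compound, 48 h, 5 concentrations. 3) Linear interpolation between surrounding doses. 4) Unreached endpoint = highest concentration. GI50: concentration for 50% inhibition of growth.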 Activity calls are given as the source filed them. Cut-off read from the data, not from the text of the source: active = GI50 up to about 1.1 µM and inactive = higher.
What was measured:
Experiment in all cases: NCI-60 cell line screen, 48 h
HOP-62 = test system: HOP-62
DU-145 = test system: DU-145
RPMI-8226 = test system: RPMI-8226
K562 = test system: K562
MDA-N = test system: MDA-N
SN12C = test system: SN12C
SK-MEL-5 = test system: SK-MEL-5
EKVX = test system: EKVX
SK-MEL-2 = test system: SK-MEL-2
786-0 = test system: 786-0
NCI/ADR-RES = test system: NCI/ADR-RES
NCI-H23 = test system: NCI-H23
MCF7 = test system: MCF7
NCI-H522 = test system: NCI-H522
A498 = test system: A498
A549 = test system: A549
UO-31 = test system: UO-31
SR = test system: SR
SF-295 = test system: SF-295
MDA-MB-231 = test system: MDA-MB-231
LOX IMVI = test system: LOX IMVI
CCRF-CEM = test system: CCRF-CEM
TK-10 = test system: TK-10
SK-OV-3 = test system: SK-OV-3
U-251 = test system: U-251
ACHN = test system: ACHN
PC-3 = test system: PC-3
NCI-H226 = test system: NCI-H226
MDA-MB-435 = test system: MDA-MB-435
SW-620 = test system: SW-620
SF-268 = test system: SF-268
OVCAR-5 = test system: OVCAR-5
COLO 205 = test system: COLO 205
Hs-578T = test system: Hs-578T
KM12 = test system: KM12
UACC-62 = test system: UACC-62
SNB-75 = test system: SNB-75
MOLT-4 = test system: MOLT-4
SNB-19 = test system: SNB-19
HCT-15 = test system: HCT-15
M14 = test system: M14
HT-29 = test system: HT-29
HCT-116 = test system: HCT-116
IGROV-1 = test system: IGROV-1
HOP-92 = test system: HOP-92
Malme-3M = test system: Malme-3M
OVCAR-8 = test system: OVCAR-8
SK-MEL-28 = test system: SK-MEL-28
OVCAR-3 = test system: OVCAR-3
OVCAR-4 = test system: OVCAR-4
CAKI-1 = test system: CAKI-1
HL-60 = test system: HL-60
T47D = test system: T47D
SF-539 = test system: SF-539
NCI-H460 = test system: NCI-H460
UACC-257 = test system: UACC-257

## C/C1=C\[C@H](C)C[C@H](C)OC(=O)C[C@H](c2ccc(O)cc2)NC(=O)[C@H](Cc2ccc(O)c(I)c2)N(C)C(=O)[C@H](C)NC(=O)[C@@H](C)C1
HOP-62
  GI50: 25.2 nM (active)
DU-145
  GI50: 18.3 nM (active)
RPMI-8226
  GI50: 10.8 nM (active)
K562
  GI50: 1310 nM (inactive)
MDA-N
  GI50: 41.2 nM (active)
SN12C
  GI50: 239 nM (active)
SK-MEL-5
  GI50: 16.9 nM (active)
EKVX
  GI50: 59.6 nM (active)
SK-MEL-2
  GI50: 64.6 nM (active)
786-0
  GI50: 14.8 nM (active)
NCI/ADR-RES
  GI50: 1110 nM (active)
NCI-H23
  GI50: 2790 nM (inactive)
MCF7
  GI50: 19 nM (active)
NCI-H522
  GI50: 81.8 nM (active)
A498
  GI50: 16 nM (active)
A549
  GI50: 10.2 nM (active)
UO-31
  GI50: 53.5 nM (active)
SR
  GI50: 96.8 nM (active)
SF-295
  GI50: 77.8 nM (active)
MDA-MB-231
  GI50: 33.3 nM (active)
LOX IMVI
  GI50: 4.11 nM (active)
CCRF-CEM
  GI50: 4.97 nM (active)
TK-10
  GI50: 58.6 nM (active)
SK-OV-3
  GI50: 54 nM (active)
U-251
  GI50: 9.44 nM (active)
ACHN
  GI50: 8.32 nM (active)
PC-3
  GI50: 60.8 nM (active)
NCI-H226
  GI50: 15.3 nM (active)
MDA-MB-435
  GI50: 44.2 nM (active)
SW-620
  GI50: 8.63 nM (active)
SF-268
  GI50: 11 nM (active)
OVCAR-5
  GI50: 131 nM (active)
COLO 205
  GI50: 16.1 nM (active)
Hs-578T
  GI50: 56.4 nM (active)
KM12
  GI50: 208 nM (active)
UACC-62
  GI50: 42.8 nM (active)
SNB-75
  GI50: 35.4 nM (active)
MOLT-4
  GI50: 258 nM (active)
SNB-19
  GI50: 14.3 nM (active)
HCT-15
  GI50: 234 nM
M14
  GI50: 40.5 nM (active)
HT-29
  GI50: 2.74 nM (active)
HCT-116
  GI50: 16 nM (active)
IGROV-1
  GI50: 12.1 nM (active)
HOP-92
  GI50: 36.5 nM (active)
Malme-3M
  GI50: 11.8 nM (active)
OVCAR-8
  GI50: 13.7 nM (active)
SK-MEL-28
  GI50: 11.2 nM (active)
OVCAR-3
  GI50: 20.3 nM (active)
OVCAR-4
  GI50: 6.53 nM (active)

## COc1cc([C@@H]2c3cc4c(cc3[C@@H](NC(=O)NO)[C@H]3COC(=O)[C@H]23)OCO4)cc(OC)c1O
HOP-62
  GI50: 5370 nM (inactive)
RPMI-8226
  GI50: 4030 nM (inactive)
K562
  GI50: 3100 nM (inactive)
MDA-N
  GI50: 2150 nM (inactive)
SN12C
  GI50: 4710 nM (inactive)
EKVX
  GI50: 7450 nM (inactive)
SK-MEL-2
  GI50: 4380 nM (inactive)
786-0
  GI50: 4980 nM (inactive)
NCI/ADR-RES
  GI50: 12700 nM (inactive)
NCI-H522
  GI50: > 100000 nM (inactive)
A498
  GI50: 14000 nM (inactive)
CAKI-1
  GI50: 6310 nM (inactive)
SR
  GI50: 9120 nM (inactive)
MDA-MB-231
  GI50: 4420 nM (inactive)
HL-60
  GI50: 3720 nM (inactive)
LOX IMVI
  GI50: 4580 nM (inactive)
CCRF-CEM
  GI50: 12700 nM (inactive)
TK-10
  GI50: > 100000 nM (inactive)
U-251
  GI50: 6900 nM (inactive)
T47D
  GI50: > 100000 nM (inactive)
SF-539
  GI50: 3600 nM (inactive)
NCI-H460
  GI50: 4420 nM (inactive)
PC-3
  GI50: 4910 nM (inactive)
MDA-MB-435
  GI50: 2290 nM (inactive)
SW-620
  GI50: 6190 nM (inactive)
SF-268
  GI50: 61500 nM (inactive)
COLO 205
  GI50: 5300 nM (inactive)
UACC-257
  GI50: > 100000 nM (inactive)
SNB-19
  GI50: > 100000 nM (inactive)
HCT-15
  GI50: 3800 nM
HT-29
  GI50: 5190 nM (inactive)
HCT-116
  GI50: 4840 nM (inactive)
IGROV-1
  GI50: 3250 nM (inactive)
HOP-92
  GI50: > 100000 nM (inactive)
OVCAR-4
  GI50: > 100000 nM (inactive)

— ChEMBL document CHEMBL1201862, “PubChem BioAssay data set” (2004)
